Where a name gives a salt, the structure may show the parent alone.
System: NF-κB activation
Assay: Inhibitory activity against NF-κB activation, luciferase reporter assay under TNF-α stimulation
Format: cell-based, human
Settings: HepG2 cells, TNF-α 40 ng/ml, 4 hours; for inhibition at 1 µg/mL / inhibition at 10 µg/mL: Homo sapiens, read-out: Inhibitory Ratio of NF-κ B Activation(%)
Summary of the method: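 HepG2 cells transfected with firefly luciferase reporter carrying five tandem NF-κB sites, incubated 6 to 24 hours, then cultured 4 hours with TNF-α (40 ng/ml) plus test compound. Luminescent luciferase read-out; inhibition expressed relative to activity without compound.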

Compound | inhibition at 1 µg/mL (Drug Concentration 1 μg/mL) | inhibition at 10 µg/mL (Drug Concentration 10 μg/mL) | Inhibitory Ratio of NF-κ B Activation(%) (Drug Concentration 1 μg/mL) | Inhibitory Ratio of NF-κ B Activation(%) (Drug Concentration 10 μg/mL)
O=C(O)C1Oc2ccc(Cl)cc2C(=O)N1c1cc(C(F)(F)F)cc(C(F)(F)F)c1 (stereo not drawn) [Compound 116] | 35.1% | 20.1% |  | 
CS(=O)(=O)Oc1ccc(Cl)cc1C(=O)Nc1cc(C(F)(F)F)cc(C(F)(F)F)c1 [Compound 44] |  |  | 85.9% | 98.6%
CC(C)C[C@H](NC(=O)[C@@H](N)Cc1ccccc1)C(=O)Oc1ccc(Cl)cc1C(=O)Nc1cc(C(F)(F)F)cc(C(F)(F)F)c1.Cl [Compound 36] |  |  | 97.8% | 98.7%
CC(C)C[C@H](NC(=O)[C@H](Cc1ccccc1)NC(=O)OC(C)(C)C)C(=O)Oc1ccc(Cl)cc1C(=O)Nc1cc(C(F)(F)F)cc(C(F)(F)F)c1 [Compound 35, 2-{N-[N-(tert-butoxycarbonyl)-L-phenylalanyl]-L-leucyl}oxy-5-chloro-N-[3,5-bis(trifluoromethyl)phenyl]benzamide] | 96.9% | 98.3% |  | 
CC(C)C[C@H](NC(=O)[C@@H](N)CC(=O)O)C(=O)Oc1ccc(Cl)cc1C(=O)Nc1cc(C(F)(F)F)cc(C(F)(F)F)c1.Cl [Compound 38] |  |  | 97.8% | 98.6%
O=C(Oc1ccccc1C(=O)Nc1cc(C(F)(F)F)ccc1C(F)(F)F)c1ccccc1O [Compound 131] |  |  | >99.9% | 
COC(=O)C1Oc2ccc(Cl)cc2C(=O)N1c1cc(C(F)(F)F)cc(C(F)(F)F)c1 (stereo not drawn) [Compound 115, 6-chloro-3,4-dihydro-4-oxo-3-[3,5-bis(trifluoromethyl)phenyl]-2H-1,3-benzoxazine-2-carboxylic acid methyl ester] | 41.8% | 92.2% |  | 
O=C(Nc1cc(C(F)(F)F)cc(C(F)(F)F)c1)c1cc(Cl)ccc1OCOC(=O)N1CCCCC1 [Compound 101, 5-Chloro-2-[(piperidinocarbonyl)oxy]methoxy-N-[3,5-bis(trifluoromethyl)phenyl]-benzamide] | 41% | 42.8% |  | 
O=C(Nc1cc(C(F)(F)F)cc(C(F)(F)F)c1)c1cc(-c2ccccc2)ccc1OC(=O)N1CCOCC1 [Compound 81, 2-(Morpholinocarbonyl)oxy-5-phenyl-N-[3,5-bis(trifluoromethyl)phenyl]benzamide] | 26.4% | 29.2% |  | 
O=C(COc1ccc(Cl)cc1)Oc1ccc(Cl)cc1C(=O)Nc1cc(C(F)(F)F)cc(C(F)(F)F)c1 [Compound 13] |  |  | 96.6% | 98.7%
CC(=O)OC[C@H]1O[C@@H](Oc2ccc(Cl)cc2C(=O)Nc2cc(C(F)(F)F)cc(C(F)(F)F)c2)[C@H](OC(C)=O)[C@@H](OC(C)=O)[C@@H]1OC(C)=O [Compound 112] |  |  | 47.2% | 49.5%
COCOc1ccc(Cl)cc1C(=O)Nc1cc(C(F)(F)F)cc(C(F)(F)F)c1 [Compound 97] |  |  | 21.6% | 94.4%
N[C@@H](CC(=O)O)C(=O)N[C@@H](Cc1ccccc1)C(=O)Oc1ccc(Cl)cc1C(=O)Nc1cc(C(F)(F)F)cc(C(F)(F)F)c1 [Compound 42, 2-[N-(α-L-aspartyl)-L-phenylalanyl]oxy-5-chloro-N-[3,5-bis(trifluoromethyl)-phenyl]benzamide hydrochloride] | 92.7% | 96.9% |  | 
CC(=O)OCC(=O)Oc1ccc(Cl)cc1C(=O)Nc1cc(C(F)(F)F)cc(C(F)(F)F)c1 [Compound 11] |  |  | 97.3% | 99.2%
O=C(Nc1cc(C(F)(F)F)ccc1C(F)(F)F)c1cc(Br)ccc1OP(=O)([O-])O.[Na+] [Compound 142] |  |  | >99.9% | 
O=C(Nc1cc(Cl)cc(Cl)c1)c1cc(Cl)ccc1OC(=O)N1CCOCC1 [Compound 89, 5-Chloro-N-(3,5-dichlorophenyl)-2-[(morpholinocarbonyl)oxy]benzamide] | 48.3% | 35.9% |  | 
CC(C)(Oc1ccc(Cl)cc1)C(=O)Oc1ccc(Cl)cc1C(=O)Nc1cc(C(F)(F)F)cc(C(F)(F)F)c1 [Compound 16] |  |  | 96.6% | 98.4%
CCC(C)(C)c1ccc(Oc2ccccc2)c(-n2c(=O)oc3ccc(Cl)cc3c2=O)c1 [Compound 118, 6-Chloro-3-[5-(1,1-dimethyl)propyl-2-phenoxyphenyl]-3,4-dihydro-2H-1,3-benzoxazine-2,4-dione] | 94% | 97.4% |  | 
O=C(Oc1ccc(Cl)cc1C(=O)Nc1cc(C(F)(F)F)cc(C(F)(F)F)c1)c1ccccc1 [Compound 4] |  |  | 94.2% | 97.5%
CC(C)(C)OC(=O)NCC(=O)Oc1ccc(Cl)cc1C(=O)Nc1cc(C(F)(F)F)cc(C(F)(F)F)c1 [Compound 22, 2-[N-(tert-butoxycarbonyl)glycyl]oxy-5-chloro-N-[3,5-bis(trifluoromethyl)phenyl]-benzamide] | 35.3% | 98.7% |  | 

Compound | inhibition at 1 µg/mL (Drug Concentration 1 μg/mL) | inhibition at 10 µg/mL (Drug Concentration 10 μg/mL) | Inhibitory Ratio of NF-κ B Activation(%) (Drug Concentration 1 μg/mL) | Inhibitory Ratio of NF-κ B Activation(%) (Drug Concentration 10 μg/mL)
O=C(CCC(=O)Oc1ccc(Cl)cc1C(=O)Nc1cc(C(F)(F)F)cc(C(F)(F)F)c1)OCc1ccccc1 [Compound 18] |  |  | 95.4% | 98.1%
CCOc1ccc(Cl)cc1C(=O)Nc1cc(C(F)(F)F)cc(C(F)(F)F)c1 [Compound 95] |  |  | 31.3% | 71.4%
O=C(Nc1cc(C(F)(F)F)cc(C(F)(F)F)c1)c1cc(Cl)ccc1OP(=O)(O)O [Compound 51, 5-chloro-2-phosphonooxy-N-[3,5-bis(trifluoromethyl)phenyl]benzamide] | 89.7% | 96.6% |  | 
CC(=O)OCOc1ccc(Cl)cc1C(=O)Nc1cc(C(F)(F)F)cc(C(F)(F)F)c1 [Compound 98] |  |  | 94.9% | 96.6%
O=C(Nc1cc(C(F)(F)F)cc(C(F)(F)F)c1)c1ccc(Cl)cc1OC(=O)N1CCOCC1 [Compound 80, 4-Chloro-2-(morpholinocarbonyl)oxy-N-[3,5-bis(trifluoromethyl)phenyl]benzamide] | 91.4% | 68.4% |  | 
CC(C)C[C@H](NC(=O)[C@H](CCCCNC(=O)OC(C)(C)C)NC(=O)OC(C)(C)C)C(=O)Oc1ccc(Cl)cc1C(=O)Nc1cc(C(F)(F)F)cc(C(F)(F)F)c1 [Compound 39, 2-{N-[N^α,N^ε-di(tert-butoxycarbonyl)-L-lysyl]-L-leucyl}oxy-5-chloro-N-[3,5-bis(trifluoromethyl)phenyl]benzamide] | 96.7% | 98.4% |  | 
O=C(O)C[C@H](NC(=O)CNC(=O)Oc1ccc(Cl)cc1C(=O)Nc1cc(C(F)(F)F)cc(C(F)(F)F)c1)C(=O)O [Compound 64] |  |  | 96.3% | 97.5%
O=C(Nc1ccc(-c2ccccc2)cc1)c1cc(C(F)(F)F)ccc1OC(=O)N1CCOCC1 [Compound 119] |  |  | >99.9% | >99.9%
CC(=O)NCC(=O)Oc1ccc(Cl)cc1C(=O)Nc1cc(C(F)(F)F)cc(C(F)(F)F)c1 [Compound 20] |  |  | 94.8% | 98.1%
O=C(COc1ccccc1)Oc1ccc(Cl)cc1C(=O)Nc1cc(C(F)(F)F)cc(C(F)(F)F)c1 [Compound 12] |  |  | 95.5% | 97.5%
O=C(COc1cccc(Cl)c1Cl)Oc1ccc(Cl)cc1C(=O)Nc1cc(C(F)(F)F)cc(C(F)(F)F)c1 [Compound 14] |  |  | 98.9% | 99.4%
O=C(CCC(=O)N1CCCCC1)Oc1ccc(Cl)cc1C(=O)Nc1cc(C(F)(F)F)cc(C(F)(F)F)c1 [Compound 19] |  |  | 97.9% | 98.8%
COc1cc(NC(=O)c2cc(Br)ccc2OC(=O)N2CCOCC2)cc(C(F)(F)F)c1 [Compound 87, 5-Bromo-N-[3-methoxy-5-(trifluoromethyl)phenyl]-2-[(morpholinocarbonyl)oxy]-benzamide] | 29.7% | 55.4% |  | 
CC(C)(C)OC(=O)C[C@H](NC(=O)OC(C)(C)C)C(=O)Oc1ccc(Cl)cc1C(=O)Nc1cc(C(F)(F)F)cc(C(F)(F)F)c1 [Compound 30] |  |  | 96.4% | 97.0%
COc1cc(NC(=O)c2cc(Br)ccc2OP(=O)([O-])O)cc(C(F)(F)F)c1.[Na+] [Compound 149] |  |  | >99.9% | 
CC(C)(C)C(=O)c1sc(NC(=O)c2cc(Cl)ccc2OC(=O)N2CCOCC2)nc1C(C)(C)C [Compound 92, 5-Chloro-N-{4-[(1,1-dimethyl)ethyl]-5-[(2,2-dimethyl)propionyl]thiazol-2-yl}-2-[(morpholinocarbonyl)oxy]benzamide] | 86.3% | 93.9% |  | 
O=C(Oc1ccc(Cl)cc1C(=O)Nc1cc(C(F)(F)F)cc(C(F)(F)F)c1)c1ccncc1 [Compound 7] |  |  | 93.9% | 98.8%
CC(C)(C)OC(=O)C[C@H](NC(=O)CNC(=O)Oc1ccc(Cl)cc1C(=O)Nc1cc(C(F)(F)F)cc(C(F)(F)F)c1)C(=O)OC(C)(C)C [Compound 63, (S)-2-[N-({N-[1,2-di(tert-butoxycarbonyl)ethyl]carbamoyl}-methyl)carbamoyl]oxy-5-chloro-N-[3,5-bis(trifluoromethyl)phenyl]benzamide] | 97.1% | 98.2% |  | 
CCOC(=O)OC(C)Oc1ccc(Cl)cc1C(=O)Nc1cc(C(F)(F)F)cc(C(F)(F)F)c1 (stereo not drawn) [Compound 100] |  |  | 96.1% | 98.5%

Source: US7626042B2, “O-substituted hydroxyaryl derivatives” (Institute of Medicinal Molecular Design, Inc., priority 2002, dated 2009)
